Test results reported in ChEMBL document CHEMBL3632475, “Design, Synthesis, and Pharmacological Evaluation of 5,6-Disubstituted Pyridin-2(1H)-one Derivatives as Phosphodiesterase 10A (PDE10A) Antagonists” (J Med Chem, 2015).
Values belong to the compound of their own block, whether it stands above or below them.

What was measured:
Canis familiaris [1] = experiment: AUC (0 to 24 hrs) in Beagle dog assessed as 6-(4-Fluorophenyl)-5-[4-quinolin-2-ylmethoxy)phenyl]-pyridine-2(1H)-one at […], iv; assay type: ADME, organism-based, Canis lupus familiaris; parameters: time < 24 hr, dose 1.1 mg/kg, route intravenous; details: in vivo
Rattus norvegicus [2] = experiment: Cmax in Sprague Dawley rat assessed as 6-(4-Fluorophenyl)-5-[4-quinolin-2-ylmethoxy)phenyl]-pyridine-2(1H)-one at 11.04 mg/kg, po measured up to 8 hrs; assay type: ADME, organism-based; parameters: dose 11.04 mg/kg, route oral; details: in vivo
Rattus norvegicus [3] = experiment: Tmax in Sprague Dawley rat assessed as 6-(4-Fluorophenyl)-5-[4-quinolin-2-ylmethoxy)phenyl]-pyridine-2(1H)-one at 11.04 mg/kg, po measured after 8hrs; assay type: ADME, organism-based; details: in vivo
Rattus norvegicus [4] = experiment: AUC (0 to t) in Sprague Dawley rat assessed as 6-(4-Fluorophenyl)-5-[4-quinolin-2-ylmethoxy)phenyl]-pyridine-2(1H)-one at 11.04 mg/kg, po measured after 8hrs; assay type: ADME, organism-based; details: in vivo
Rattus norvegicus [5] = experiment: AUC (0 to 24 hrs) in Sprague Dawley rat assessed as 6-(4-Fluorophenyl)-5-[4-quinolin-2-ylmethoxy)phenyl]-pyridine-2(1H)-one at […], iv; assay type: ADME, organism-based; parameters: dose 1.1 mg/kg, time < 24 hr, route intravenous; details: in vivo
Canis familiaris [6] = experiment: Cmax in Beagle dog assessed as 6-(4-Fluorophenyl)-5-[4-quinolin-2-ylmethoxy)phenyl]-pyridine-2(1H)-one at 11.04 mg/kg, po; assay type: ADME, organism-based, Canis lupus familiaris; parameters: dose 11.04 mg/kg, route oral; details: in vivo
Canis familiaris [7] = experiment: AUC (0 to 24 hrs) in Beagle dog assessed as 6-(4-Fluorophenyl)-5-[4-quinolin-2-ylmethoxy)phenyl]-pyridine-2(1H)-one at 11.04 mg/kg, po; assay type: ADME, organism-based, Canis lupus familiaris; parameters: dose 11.04 mg/kg, time < 24 hr, route oral; details: in vivo
Canis familiaris [8] = experiment: Tmax in Beagle dog assessed as 6-(4-Fluorophenyl)-5-[4-quinolin-2-ylmethoxy)phenyl]-pyridine-2(1H)-one at 11.04 mg/kg, po; assay type: ADME, organism-based, Canis lupus familiaris; details: in vivo
Cynomolgus monkey [9] = experiment: AUC (0 to 24 hrs) in cynomolgus monkey assessed as 6-(4-Fluorophenyl)-5-[4-quinolin-2-ylmethoxy)phenyl]-pyridine-2(1H)-one at […], iv; assay type: ADME, organism-based, Macaca fascicularis; parameters: time < 24 hr, dose 1.1 mg/kg, route intravenous; details: in vivo
Cynomolgus monkey [10] = experiment: Cmax in cynomolgus monkey assessed as 6-(4-Fluorophenyl)-5-[4-quinolin-2-ylmethoxy)phenyl]-pyridine-2(1H)-one at 11.04 mg/kg, po; assay type: ADME, organism-based, Macaca fascicularis; parameters: dose 11.04 mg/kg, route oral; details: in vivo
Cynomolgus monkey [11] = experiment: AUC (0 to 24 hrs) in cynomolgus monkey assessed as 6-(4-Fluorophenyl)-5-[4-quinolin-2-ylmethoxy)phenyl]-pyridine-2(1H)-one at 11.04 mg/kg, po; assay type: ADME, organism-based, Macaca fascicularis; parameters: time < 24 hr, dose 11.04 mg/kg, route oral; details: in vivo
Cynomolgus monkey [12] = experiment: Tmax in cynomolgus monkey assessed as 6-(4-Fluorophenyl)-5-[4-quinolin-2-ylmethoxy)phenyl]-pyridine-2(1H)-one at 11.04 mg/kg, po; assay type: ADME, organism-based, Macaca fascicularis; details: in vivo
Rattus norvegicus [13] = experiment: Cmax in Sprague Dawley rat assessed as 6-(2,4-Difluorophenyl)-5-[4-(quinolin-2-ylmethoxy)phenyl]-pyridin-2(1H)-one at 11.04 mg/kg, po measured up to 8 hrs; assay type: ADME, organism-based; parameters: dose 11.04 mg/kg, route oral; details: in vivo
Rattus norvegicus [14] = experiment: Tmax in Sprague Dawley rat assessed as 6-(2,4-Difluorophenyl)-5-[4-(quinolin-2-ylmethoxy)phenyl]-pyridin-2(1H)-one at 11.04 mg/kg, po measured up to 8 hrs; assay type: ADME, organism-based; details: in vivo
Rattus norvegicus [15] = experiment: AUC (0 to t) in Sprague Dawley rat assessed as 6-(2,4-Difluorophenyl)-5-[4-(quinolin-2-ylmethoxy)phenyl]-pyridin-2(1H)-one at 11.04 mg/kg, po measured up to 8 hrs; assay type: ADME, organism-based; parameters: dose 11.04 mg/kg, time < 8 hr, route oral; details: in vivo
[16] = Drug level in liver microsomes (unknown origin) treated with 6-(4-Fluorophenyl)-5-[4-quinolin-2-ylmethoxy)phenyl]-pyridine-2(1H)-one incubated for 60 mins measured by LC-MS/MS analysis in presence of UDPGA; assay type: ADME
[17] = Drug level in intestinal microsomes (unknown origin) treated with 6-(4-Fluorophenyl)-5-[4-quinolin-2-ylmethoxy)phenyl]-pyridine-2(1H)-one incubated for 60 mins measured by LC-MS/MS analysis in presence of UDPGA; assay type: ADME, Intestine
Rattus norvegicus [18] = experiment: Tmax in Sprague Dawley rat assessed as 6-Phenyl-5-[4-(qumolm-2-ylmethoxy)phenyl]pyridm-2(1H)-one at 11.04 mg/kg, po measured up to 8 hrs; assay type: ADME, organism-based; details: in vivo
Rattus norvegicus [19] = experiment: Cmax in Sprague Dawley rat assessed as 6-Phenyl-5-[4-(qumolm-2-ylmethoxy)phenyl]pyridm-2(1H)-one at 11.04 mg/kg, po measured up to 8 hrs; assay type: ADME, organism-based; parameters: dose 11.04 mg/kg, route oral; details: in vivo
Rattus norvegicus [20] = experiment: AUC (0 to t) in Sprague Dawley rat assessed as 6-Phenyl-5-[4-(qumolm-2-ylmethoxy)phenyl]pyridm-2(1H)-one at 11.04 mg/kg, po measured up to 8 hrs; assay type: ADME, organism-based; parameters: time < 8 hr, dose 11.04 mg/kg, route oral; details: in vivo

Compound: CC(=O)Oc1ccc(-c2ccc(OCc3ccc4ccccc4n3)cc2)c(-c2ccc(F)cc2F)n1
Cmax (Rattus norvegicus [13]): 266 ng/mL
Tmax (Rattus norvegicus [14]): 2 h
AUCt (Rattus norvegicus [15]): 1764 ng·h/mL

Compound: CN(C)C(=O)Oc1ccc(-c2ccc(OCc3ccc4ccccc4n3)cc2)c(-c2ccc(F)cc2)n1
Cmax (Rattus norvegicus [2]): 42 ng/mL
Tmax (Rattus norvegicus [3]): 1 h
AUCt (Rattus norvegicus [4]): 182 ng·h/mL

Compound: CC(=O)Oc1ccc(-c2ccc(OCc3ccc4ccccc4n3)cc2)c(-c2ccccc2)n1
Tmax (Rattus norvegicus [18]): 1 h
Cmax (Rattus norvegicus [19]): 372 ng/mL
AUCt (Rattus norvegicus [20]): 1497 ng·h/mL

The remaining lines, values ahead:

AUC (Canis familiaris [1]): 841 ng·h/mL
Cmax (Rattus norvegicus [2]): 372 ng/mL
Tmax (Rattus norvegicus [3]): 1 h
AUCt (Rattus norvegicus [4]): 2436 ng·h/mL
AUC (Rattus norvegicus [5]): 492 ng·h/mL
Cmax (Canis familiaris [6]): 49 ng/mL
AUC (Canis familiaris [7]): 555 ng·h/mL
Tmax (Canis familiaris [8]): 1 h
AUC (Cynomolgus monkey [9]): 1314 ng·h/mL
Cmax (Cynomolgus monkey [10]): 38 ng/mL
AUC (Cynomolgus monkey [11]): 345 ng·h/mL
Tmax (Cynomolgus monkey [12]): 6 h
Compound: CC(=O)Oc1ccc(-c2ccc(OCc3ccc4ccccc4n3)cc2)c(-c2ccc(F)cc2)n1

Drug metabolism [16]: metabolite_detected
Drug metabolism [17]: metabolite_detected
Compound: O=C(O)[C@H]1O[C@@H](Oc2ccc(-c3ccc(OCc4ccc5ccccc5n4)cc3)c(-c3ccc(F)cc3)n2)[C@H](O)[C@@H](O)[C@@H]1O
